Reference: PubChem BioAssay (NCI)
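The compound was tested at five concentrations on cells cultured in 96-well plates, with a 48-hour exposure period. TGI denotes the concentration required for complete inhibition of growth.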

Tests used:
Experiment in all cases: inhibition of tumour cell growth, NCI panel, 48 h
NCI-H522 lung = test system: NCI-H522 lung
UACC-257 melanoma = test system: UACC-257 melanoma
RXF 393 renal = test system: RXF 393 renal
OVCAR-8 ovarian = test system: OVCAR-8 ovarian
RPMI-8226 leukemia = test system: RPMI-8226 leukemia
MALME-3M melanoma = test system: MALME-3M melanoma
SNB-75 CNS = test system: SNB-75 CNS
A549 NSCLC = test system: A549 NSCLC
A498 renal = test system: A498 renal
HCC-2998 colon = test system: HCC-2998 colon

In the case of `CCN(CC)C(=O)CCN1CC1`, the TGI (NCI-H522 lung) is reported as greater than 10 µM, the TGI (UACC-257 melanoma) is reported as greater than 10 µM and the TGI (RXF 393 renal) is reported as greater than 10 µM. For the same molecule, the TGI (OVCAR-8 ovarian) was greater than 10 µM, the TGI (RPMI-8226 leukemia) was greater than 10 µM and the TGI (MALME-3M melanoma) was greater than 10 µM. The TGI (SNB-75 CNS) was greater than 10 µM, the TGI (A549 NSCLC) was greater than 10 µM and the TGI (A498 renal) was greater than 10 µM. It also gave a TGI (HCC-2998 colon) greater than 10 µM.
In the case of `Cc1cc(S(=O)(=O)/N=C(/NN)Nc2ccc(Cl)cc2)c(S)cc1Cl`, the TGI (NCI-H522 lung) is reported as 42.9 µM, the TGI (UACC-257 melanoma) is reported as 72.5 µM and the TGI (RXF 393 renal) is reported as 78.8 µM. For the same molecule, the TGI (OVCAR-8 ovarian) was 27.3 µM, the TGI (RPMI-8226 leukemia) was greater than 100 µM and the TGI (MALME-3M melanoma) was 37.1 µM. It also gave a TGI (SNB-75 CNS) of 28.8 µM, a TGI (A549 NSCLC) of 23.8 µM and a TGI (A498 renal) of 35.4 µM. The TGI (HCC-2998 colon) was 23.8 µM.
`CCOC1=C(c2ccccc2)N2CCCCC2O1` (centres undefined) gave a TGI (NCI-H522 lung) of 13.4 µM, a TGI (UACC-257 melanoma) greater than 33.6 µM and a TGI (RXF 393 renal) of 37.4 µM. The TGI (OVCAR-8 ovarian) was greater than 38.5 µM, the TGI (RPMI-8226 leukemia) was greater than 24 µM and the TGI (MALME-3M melanoma) was 20.7 µM. For the same molecule, the TGI (SNB-75 CNS) was 28.7 µM, the TGI (A549 NSCLC) was greater than 100 µM and the TGI (A498 renal) was 32.2 µM. The TGI (HCC-2998 colon) was 12.8 µM.
In the case of `COc1cccc(C2c3cc4c(cc3OC(Nc3ccccc3)C2C)OCO4)c1O` (centres undefined), the TGI (NCI-H522 lung) is reported as 20.6 µM, the TGI (UACC-257 melanoma) is reported as greater than 57.8 µM and the TGI (RXF 393 renal) is reported as 31.4 µM. For the same molecule, the TGI (OVCAR-8 ovarian) was 35.7 µM, the TGI (RPMI-8226 leukemia) was 43.8 µM and the TGI (MALME-3M melanoma) was 35.3 µM. The TGI (SNB-75 CNS) was 26.8 µM, the TGI (A549 NSCLC) was 23.6 µM and the TGI (A498 renal) was 23 µM. The TGI (HCC-2998 colon) was 36.3 µM.
`O=c1c2nc(-c3ccccc3)oc2n(-c2ccccc2)c(=O)n1-c1ccccc1` showed a TGI (NCI-H522 lung) of 39.1 µM, a TGI (UACC-257 melanoma) greater than 46.4 µM and a TGI (RXF 393 renal) of 34.8 µM. For the same molecule, the TGI (OVCAR-8 ovarian) was 44.6 µM, the TGI (RPMI-8226 leukemia) was greater than 46.4 µM and the TGI (MALME-3M melanoma) was greater than 31.6 µM. For the same molecule, the TGI (SNB-75 CNS) was 31.2 µM, the TGI (A549 NSCLC) was greater than 46.4 µM and the TGI (A498 renal) was greater than 31.6 µM. It also gave a TGI (HCC-2998 colon) greater than 46.4 µM.
`CC(C)(C)C1=C(Br)C(O)(C(C)(C)C)OP1(=O)c1ccccc1` (centres undefined) showed a TGI (NCI-H522 lung) greater than 100 µM, a TGI (UACC-257 melanoma) greater than 100 µM and a TGI (RXF 393 renal) greater than 100 µM. The TGI (OVCAR-8 ovarian) was greater than 100 µM, the TGI (MALME-3M melanoma) was greater than 100 µM and the TGI (SNB-75 CNS) was greater than 100 µM. It also gave a TGI (A549 NSCLC) greater than 100 µM, a TGI (A498 renal) greater than 100 µM and a TGI (HCC-2998 colon) greater than 100 µM.
`CCCCN(C)/N=N/c1nc[nH]c1C(N)=O` was tested, and the TGI (NCI-H522 lung) was greater than 100 µM, the TGI (UACC-257 melanoma) was greater than 100 µM and the TGI (RXF 393 renal) was greater than 100 µM. It also gave a TGI (OVCAR-8 ovarian) greater than 100 µM, a TGI (RPMI-8226 leukemia) greater than 100 µM and a TGI (MALME-3M melanoma) greater than 100 µM. For the same molecule, the TGI (SNB-75 CNS) was greater than 100 µM, the TGI (A549 NSCLC) was greater than 100 µM and the TGI (A498 renal) was greater than 100 µM. For the same molecule, the TGI (HCC-2998 colon) was greater than 100 µM.
Molecule `N/C(=N\N=C\c1ncccc1O)NO` has a TGI (NCI-H522 lung) of 87.9 µM, a TGI (UACC-257 melanoma) greater than 100 µM and a TGI (RXF 393 renal) greater than 100 µM. It also gave a TGI (OVCAR-8 ovarian) greater than 100 µM, a TGI (RPMI-8226 leukemia) greater than 100 µM and a TGI (MALME-3M melanoma) greater than 100 µM. The TGI (SNB-75 CNS) was greater than 62.6 µM, the TGI (A549 NSCLC) was greater than 100 µM and the TGI (A498 renal) was greater than 100 µM. It also gave a TGI (HCC-2998 colon) greater than 100 µM.
Work on `O=[Se](O)O` yielded a TGI (NCI-H522 lung) of 39 µM, a TGI (UACC-257 melanoma) greater than 100 µM and a TGI (RXF 393 renal) of 10.3 µM. It also gave a TGI (OVCAR-8 ovarian) of 8.83 µM, a TGI (RPMI-8226 leukemia) greater than 100 µM and a TGI (MALME-3M melanoma) greater than 100 µM. For the same molecule, the TGI (SNB-75 CNS) was 7.55 µM, the TGI (A549 NSCLC) was greater than 100 µM and the TGI (A498 renal) was greater than 100 µM. For the same molecule, the TGI (HCC-2998 colon) was greater than 100 µM.
Work on `C[C@H](C1CC2(C)OC2(C)C(=O)O1)[C@H]1CC[C@H]2[C@@H]3[C@@H]4O[C@@H]4[C@@]4(O)CC=CC(=O)[C@]4(C)[C@H]3CC[C@]12C` (some centres undefined) yielded a TGI (NCI-H522 lung) greater than 50 µM, a TGI (UACC-257 melanoma) greater than 50 µM and a TGI (RXF 393 renal) of 23.9 µM. It also gave a TGI (OVCAR-8 ovarian) greater than 50 µM, a TGI (RPMI-8226 leukemia) greater than 50 µM and a TGI (SNB-75 CNS) of 19.8 µM. The TGI (A549 NSCLC) was greater than 50 µM, the TGI (A498 renal) was greater than 50 µM and the TGI (HCC-2998 colon) was greater than 50 µM.
Work on `S=C1SC(=Nc2ccccc2)C(=Nc2ccccc2)N1c1ccc2ccccc2c1` yielded a TGI (NCI-H522 lung) greater than 100 µM, a TGI (RXF 393 renal) greater than 100 µM and a TGI (OVCAR-8 ovarian) greater than 100 µM. The TGI (RPMI-8226 leukemia) was greater than 100 µM, the TGI (MALME-3M melanoma) was greater than 100 µM and the TGI (SNB-75 CNS) was greater than 100 µM. It also gave a TGI (A498 renal) greater than 100 µM and a TGI (HCC-2998 colon) greater than 100 µM.
Molecule `CC(C)Oc1cccc(N2C(Nc3ccccc3)=Nc3ccncc3S2(=O)=O)c1` has a TGI (NCI-H522 lung) greater than 100 µM, a TGI (UACC-257 melanoma) of 50.4 µM and a TGI (RXF 393 renal) of 95.6 µM. The TGI (OVCAR-8 ovarian) was 43.4 µM, the TGI (MALME-3M melanoma) was 63.7 µM and the TGI (SNB-75 CNS) was greater than 100 µM. The TGI (A549 NSCLC) was greater than 100 µM, the TGI (A498 renal) was 79.9 µM and the TGI (HCC-2998 colon) was 71.5 µM.
In the case of `NCCSCCC(=O)O`, the TGI (NCI-H522 lung) is reported as greater than 100 µM, the TGI (UACC-257 melanoma) is reported as greater than 100 µM and the TGI (RXF 393 renal) is reported as greater than 100 µM. The TGI (OVCAR-8 ovarian) was greater than 100 µM, the TGI (RPMI-8226 leukemia) was greater than 92.3 µM and the TGI (MALME-3M melanoma) was greater than 100 µM. The TGI (SNB-75 CNS) was greater than 92.6 µM, the TGI (A549 NSCLC) was greater than 100 µM and the TGI (A498 renal) was 99.5 µM. It also gave a TGI (HCC-2998 colon) of 98.4 µM.
`Cc1nc(Nc2ccccc2Cl)sc1C(=O)CC(=O)C(N)=O` gave a TGI (NCI-H522 lung) of 6.79 µM, a TGI (UACC-257 melanoma) greater than 100 µM and a TGI (RXF 393 renal) greater than 100 µM. For the same molecule, the TGI (OVCAR-8 ovarian) was greater than 100 µM, the TGI (RPMI-8226 leukemia) was greater than 100 µM and the TGI (SNB-75 CNS) was 92.2 µM. The TGI (A549 NSCLC) was greater than 100 µM, the TGI (A498 renal) was 66.7 µM and the TGI (HCC-2998 colon) was greater than 100 µM.
For `Cc1ccccc1NC(=O)CC(=O)NNC(Sc1ccccc1)c1cc(N=Nc2ccc(Br)cc2)ccc1O` (centres undefined), the TGI (NCI-H522 lung) was greater than 10 µM, the TGI (UACC-257 melanoma) was greater than 10 µM and the TGI (RXF 393 renal) was greater than 10 µM. For the same molecule, the TGI (OVCAR-8 ovarian) was 2.12 µM, the TGI (RPMI-8226 leukemia) was 9.06 µM and the TGI (MALME-3M melanoma) was greater than 10 µM. It also gave a TGI (SNB-75 CNS) greater than 10 µM, a TGI (A549 NSCLC) greater than 10 µM and a TGI (A498 renal) of 7.96 µM. For the same molecule, the TGI (HCC-2998 colon) was greater than 10 µM.
`O=c1[nH]nc(Cc2ccc(Cl)cc2)n1/N=C/c1ccc([N+](=O)[O-])o1` showed a TGI (NCI-H522 lung) of 4.18 µM, a TGI (UACC-257 melanoma) of 9.3 µM and a TGI (RXF 393 renal) of 4.8 µM. It also gave a TGI (OVCAR-8 ovarian) greater than 32.2 µM, a TGI (RPMI-8226 leukemia) of 6.48 µM and a TGI (MALME-3M melanoma) of 3.31 µM. It also gave a TGI (SNB-75 CNS) of 31.1 µM, a TGI (A549 NSCLC) greater than 35.4 µM and a TGI (A498 renal) of 14.1 µM. The TGI (HCC-2998 colon) was 4.82 µM.
For `NC(=O)CN1C=CCC(C(N)=O)=C1`, the TGI (NCI-H522 lung) was greater than 100 µM, the TGI (UACC-257 melanoma) was greater than 100 µM and the TGI (RXF 393 renal) was greater than 100 µM. It also gave a TGI (OVCAR-8 ovarian) greater than 100 µM, a TGI (RPMI-8226 leukemia) greater than 100 µM and a TGI (MALME-3M melanoma) greater than 100 µM. For the same molecule, the TGI (SNB-75 CNS) was greater than 100 µM, the TGI (A549 NSCLC) was greater than 100 µM and the TGI (A498 renal) was greater than 100 µM. The TGI (HCC-2998 colon) was greater than 100 µM.
